Reference: patent publication US10857105B2, “Compounds and compositions for intracellular delivery of therapeutic agents” (ModernaTX, Inc., priority 2017, dated 2020)

Tests used:
[1] = Encapsulation efficiency of RNA in nanoparticle compositions (RIBOGREEN assay); type: physicochemical; details: Table 1A; lipid:DSPC:cholesterol:PEG-DMG 50:10:38.5:1.5 mol %
Procedure: For nanoparticle compositions including an RNA, a QUANT-IT™ RIBOGREEN® RNA assay (Invitrogen Corporation Carlsbad, Calif.) can be used to evaluate the encapsulation of an RNA by the nanoparticle composition. The samples are diluted to a concentration of approximately 5 μg/mL, in a TE buffer solution (10 mM Tris-HCl, 1 mM EDTA, pH 7.5). 50 μL of the diluted samples are transferred to a polystyrene 96 well plate and either 50 μL of TE buffer or 50 μL of a 2% Triton X-100 solution is added to the wells. The plate is incubated at a temperature of 37° C. for 15 minutes. The RIBOGREEN® reagent is diluted 1:100 in TE buffer, and 100 μL of this solution is added to each well. The fluorescence intensity can be measured using a fluorescence plate reader (Wallac Victor 1420 Multilabel Counter; Perkin Elmer, Waltham, Mass.) at an excitation wavelength of, for example, about 480 nm and an emission wavelength of, for example, about 520 nm. The fluorescence values of the reagent blank are subtracted from that of each of the samples and the percentage of free RNA is determined by dividing the fluorescence intensity of the intact sample (without addition of Triton X-100) by the fluorescence value of the disrupted sample (caused by the addition of Triton X-100).
(§1) Initial studies were performed to compare the delivery efficiency of nanoparticle compositions including various compounds according to Formula (I), (IA), (IB), (II), (IIa), (IIb), (IIc), (IId), (IIe), (IIf), (IIg), or (III). The cationic lipid MC3 is a current standard in the art. Accordingly, the standard MC3 formulation including about 50 mol % MC3, about 10 mol % DSPC, about 38.5 mol % cholesterol, and about 1.5 mol % PEG-DMG was used as a basis for this study. Nanoparticle compositions including DSPC as a phospholipid, cholesterol as a structural lipid, PEG-DMG as a PEG lipid, an RNA, and a compound according to Formula (I), (IA), (IB), (II), (IIa), (IIb), (IIc), (IId), (IIe), (IIf), (IIg), or (III) selected from Compounds 1-159, 168-170, and 173-175 were prepared according to or via methods similar to those described in Examples 1 and 2. The ratios of the lipids were 50:10:38.5:1.5 mol % for the lipid according to Formula (I), (IA), (IB), (II), (IIa), (IIb), (IIc), (IId), (IIe), (IIf), (IIg), or (III):DSPC:cholesterol:PEG-DMG. The RNA used was an mRNA encoding luciferase (Luc) or hEPO, wherein each uridine was replaced N1-methyl pseudouridine. Tables 1A-1E summarize the content and characteristics of the formulations.

modified luciferase = assay: Luciferase expression in liver, lung, spleen and femur 6 hours after intravenous administration to mice; type: in vivo; details: 6 hours after intravenous 0.5 mpk, mice
Procedure: The efficacy of the nanoparticle compositions presented in Table 1A was further evaluated by measuring the expression of modified luciferase in the liver, lung, spleen, and femur upon administration of a given composition. Formulations were administered intravenously to mice (n=3) at a dosage of 0.5 mpk and bioluminescence measured after 6 hours. The standard MC3 formulation and a PBS control were also tested. […] Flux in the liver was lowest for compositions including Compounds 58, 59, 137, and 141. Flux in the spleen was highest for compositions including Compounds 4, 7, 33, 34, 48, 53, 108, 129, 130, and 148, and lowest for compositions including Compounds 9, 59, 124, and 141.

luciferase (Luc) mRNA = assay: Luciferase expression (whole body bioluminescence) after intravenous administration to mice; type: in vivo
Procedure: In order to monitor how effectively various nanoparticle compositions deliver therapeutic and/or prophylactics to targeted cells, different nanparticle compositions including a particular therapeutic and/or prophylactic (for example, a modified or naturally occurring RNA such as an mRNA) are prepared and administered to rodent populations. Mice are intravenously, intramuscularly, intraarterially, or intratumorally administered a single dose including a nanoparticle composition with a formulation such as those provided in Example 3. In some instances, mice may be made to inhale doses. Dose sizes may range from 0.001 mg/kg to 10 mg/kg, where 10 mg/kg describes a dose including 10 mg of a therapeutic and/or, prophylactic in a nanoparticle composition for each 1 kg of body mass of the mouse. A control composition including PBS may also be employed.
Upon administration of nanoparticle compositions to mice, dose delivery profiles, dose responses, and toxicity of particular formulations and doses thereof can be measured by enzyme-linked immunosorbent assays (ELISA), bioluminescent imaging, or other methods. For nanoparticle compositions including mRNA, time courses of protein expression can also be evaluated. Samples collected from the rodents for evaluation may include blood, sera, and tissue (for example, muscle tissue from the site of an intramuscular injection and internal tissue); sample collection may involve sacrifice of the animals.
The efficacy of the nanoparticle compositions presented in Table 1A was evaluated with a bioluminescence study. Formulations were administered intravenously to mice (n=6) at a dosage of 0.5 mg/kg (mpk) and bioluminescence measured at 3, 6, and 24 hour time points. The standard MC3 formulation and, in some instances, a control (e.g., a PBS control) were evaluated for comparison. […] In general, flux decreased as time progressed to less than 10% of the initial flux.
The total flux (measured by area under the curve, AUC) induced by administration of a formulation including a given lipid relative to that induced by administration of a formulation including MC3 was also measured for several lipids.

[2] = Particle size and polydispersity index of nanoparticle compositions (Zetasizer Nano ZS); type: physicochemical
Procedure: A Zetasizer Nano ZS (Malvern Instruments Ltd, Malvern, Worcestershire, UK) can be used to determine the particle size, the polydispersity index (PDI) and the zeta potential of the nanoparticle compositions in 1×PBS in determining particle size and 15 mM PBS in determining zeta potential.
as §1

[3] = intravenous administration (Table 3D)
[4] = Table 1A, lipid:DSPC:cholesterol:PEG-DMG 50:10:38.5:1.5 mol %

| Compound | EE [1] | Total Flux, Liver (modified luciferase) | Total Flux, Lung (modified luciferase) | Total Flux, Spleen (modified luciferase) | AUC (luciferase (Luc) mRNA; [3]) | Size [2, 4] | Size ([2]; Table 1C, compositions for subcutaneous administration) | Novel lipid/MC3 ratio, i.v. (luciferase (Luc) mRNA; Table 3G, intravenous, luciferase, 6 hr. timepoint, relative to MC3) | Novel lipid/MC3 expression ratio, i.v. (luciferase (Luc) mRNA; intravenous, luciferase, 6 hr. time point, relative to MC3 formulation) | AUC (luciferase (Luc) mRNA; i.v. administration (Table 3C)) |
| --- | --- | --- | --- | --- | --- | --- | --- | --- | --- | --- |
| CCCCCCCCCOC(=O)CCCCCCCN(CCO)CCCCCCCC(=O)OC(C)(C)C [Compound 158, tert-Butyl 8-((2-hydroxyethyl)(8-(nonyloxy)-8-oxooctyl)amino)octanoate] | 35.70% | 1.99E+05 | 1.71E+04 | 1.17E+05 | 1.211E+007 p/s*h |  |  |  |  |  |
| CCCCCCCCC(CCCCCCCC)OC(=O)CCCCCCCN(C)CCCCCCCCCC(=O)OCCCCCCC [Compound 149, Heptyl 10-((8-(heptadecan-9-yloxy)-8-oxooctyl)(methyl)amino)decanoate] |  | 1.11E+09 | 2.69E+06 | 2.71E+07 | 1.057E+011 p/s*h | 62.1 nm |  |  |  |  |
| CCCCCCCCCOC(=O)CCCCCCCN(CCO)CCCCCCCCCC(CCCCCCCC)CCCCCCCC [Compound 153, Nonyl 8-((2-hydroxyethyl)(10-octyloctadecyl)amino)octanoate] |  | 1.18E+09 | 6.42E+06 | 1.42E+08 | 2.697E+011 p/s*h | 83.7 nm |  |  |  |  |
| CCCCCCCCCOC(=O)CCCCCCCN(CCO)CCCCCCCC(=O)OC(CCCCC)CCCCCCCC (stereo not drawn) [Compound 33, nonyl 8-((2-hydroxyethyl)(8-oxo-8-(tetradecan-6-yloxy)octyl)amino) octanoate] | 95.66% | 1.78E+10 | 2.92E+07 | 3.77E+08 |  | 107.3 nm |  |  |  |  |
| CCCCCCCCCOC(=O)CCCCCCCN(CCO)CCN(CCO)CCCCCCCC(=O)OC(CCCCCCCC)CCCCCCCC [Compound 159, Heptadecan-9-yl 8-((2-hydroxyethyl)(2-((2-hydroxyethyl)(8-(nonyloxy)-8-oxooctyl)amino)ethyl)amino)octanoate] |  | 1.13E+06 | 2.17E+05 | 7.24E+05 | 1.355E+008 p/s*h | 75.9 nm |  |  |  |  |
| CCCCCCCCCOC(=O)CCCCCCCN(CCO)CCCCCCCC(=O)OC(CCCCCC)CCCCCCCC (stereo not drawn) [Compound 32, nonyl 8-((2-hydroxyethyl)(8-oxo-8-(pentadecan-7-yloxy)octyl)amino) octanoate] | 94.87% | 8.52E+09 | 1.16E+07 | 1.70E+08 |  | 105.6 nm |  |  |  |  |
| CCCCCCCCC(CCCCCCCC)OC(=O)CCCCCCCN(CCO)CCCC(=O)OCCCCCC [Compound 53, heptadecan-9-yl 8-((4-(hexyloxy)-4-oxobutyl)(2-hydroxyethyl)amino) octanoate] | 95.8% | 2.02E+09 | 2.47E+07 | 8.54E+08 |  | 125.4 nm |  |  |  |  |
| CCCCCCCCCOC(=O)CCCCCCCN(CCCCCCCC(=O)OC(CCCCCCCC)CCCCCCCC)CCCNC(=S)NC [Compound 113, Heptadecan-9-yl 8-((3-(3-methylthioureido)propyl)(8-(nonyloxy)-8-oxooctyl)amino)octanoate] |  | 1.11E+09 | 5.55E+06 | 5.22E+07 |  | 86.8 nm | 83.9 nm | 0.59 | 0.59 |  |
| CCCCCCCCCOC(=O)CCCCCCCN(CCO)CCCCCCC/C=C\C(CCCCCCCC)CCCCCCCC [Compound 152, Nonyl (Z)-8-((2-hydroxyethyl)(10-octyloctadec-8-en-1-yl)amino)octanoate] |  | 1.43E+08 | 3.16E+05 | 6.63E+06 | 2.855E+010 p/s*h | 62.6 nm |  |  |  |  |
| CCCCCCCCC(CCCCCCCC)OC(=O)CCCCCCCN(CCO)CCCCCCCC(=O)OC1CCC(CCCCC)CC1 (stereo not drawn) [Compound 66, Heptadecan-9-yl 8-((2-hydroxyethyl)(8-oxo-8-((4-pentylcyclohexyl)oxy)octyl)amino)octanoate] |  | 5.01E+09 | 4.20E+06 | 2.00E+07 |  | 76.7 nm |  |  |  | 6.76E+11 h*p/s |
| CCCCCCCCCOC(=O)CCCCCCCN(CCO)CCCCCCCC(=O)OC(CCCCCC)CCCCCC [Compound 56, nonyl 8-((2-hydroxyethyl)(8-oxo-8-(tridecan-7-yloxy)octyl)amino) octanoate] | 95.18% | 1.04E+09 | 4.62E+06 | 1.98E+08 |  | 112.1 nm |  |  |  |  |
| CCCCCCCCCOC(=O)CCCCCCCN(CCO)CCCCCCCC(=O)OC(CCC)CCCCCCCC (stereo not drawn) [Compound 34, dodecan-4-yl 8-((2-hydroxyethyl)(8-(nonyloxy)-8-oxooctyl)amino) octanoate] | 92.52% | 2.08E+09 | 9.49E+06 | 2.40E+08 |  | 133.8 nm |  |  |  |  |
| CCCCCCCCCOC(=O)CCCCCCCN(CCO)CCCCCCCC(=O)OC1CCC(C2CCCCC2)CC1 (stereo not drawn) [Compound 80, [1,1′-Bi(cyclohexan)]-4-yl 8-((2-hydroxyethyl)(8-(nonyloxy)-8-oxooctyl)amino)octanoate] | 90.7% | 1.09E+07 | 8.97E+04 | 4.71E+06 |  | 118 nm |  |  |  |  |
| CCCCCCCCCOC(=O)CCCCCCCN(CCCCCCCC(=O)OC(CCCCCCCC)CCCCCCCC)CCN1CCN(C)CC1 [Compound 101, Heptadecan-9-yl 8-((2-(4-methylpiperazin-1-yl)ethyl)(8-(nonyloxy)-8-oxooctyl)amino)octanoate] |  | 1.27E+07 | 1.77E+05 | 5.60E+06 |  | 91.7 nm |  |  |  | 1.8E+09 h*p/s |
